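Values below derive from 48-hour exposures of cells grown in 96-well plates, with endpoints linearly interpolated between the two concentrations bracketing the appropriate inhibition level. GI50 is the concentration that inhibits growth by half.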 Active and inactive are the calls of the source. No stated cut-off is given here; in the data, active = GI50 up to about 1.1 µM and inactive = higher.
What was measured:
Test in all cases: NCI-60 cell line screen, 48 h
TK-10 = tested on: TK-10
NCI-H460 = tested on: NCI-H460
SF-539 = tested on: SF-539
SR = tested on: SR
SNB-75 = tested on: SNB-75
IGROV-1 = tested on: IGROV-1
HCT-15 = tested on: HCT-15
EKVX = tested on: EKVX
SK-MEL-2 = tested on: SK-MEL-2
RPMI-8226 = tested on: RPMI-8226
Malme-3M = tested on: Malme-3M
NCI-H226 = tested on: NCI-H226
K562 = tested on: K562
HCC 2998 = tested on: HCC 2998
786-0 = tested on: 786-0
SF-268 = tested on: SF-268
M14 = tested on: M14
RXF 393 = tested on: RXF 393
UO-31 = tested on: UO-31
HOP-92 = tested on: HOP-92

| SMILES | GI50 (TK-10) | GI50 (NCI-H460) | GI50 (SF-539) | GI50 (SR) | GI50 (SNB-75) | GI50 (IGROV-1) | GI50 (HCT-15) [µM] | GI50 (EKVX) | GI50 (SK-MEL-2) | GI50 (RPMI-8226) | GI50 (Malme-3M) | GI50 (NCI-H226) | GI50 (K562) | GI50 (HCC 2998) | GI50 (786-0) | GI50 (SF-268) | GI50 (M14) | GI50 (RXF 393) | GI50 (UO-31) | GI50 (HOP-92) |
| --- | --- | --- | --- | --- | --- | --- | --- | --- | --- | --- | --- | --- | --- | --- | --- | --- | --- | --- | --- | --- |
| CN(CCCCCl)P(=O)(OCc1ccc([N+](=O)[O-])o1)OC[C@H]1O[C@@H](n2cc(F)c(=O)[nH]c2=O)C[C@@H]1O (stereo not given in full) | 1.79 µM (inactive) | < 0.01 µM (active) | < 0.01 µM (active) | 70.2 nM (active) | 0.102 µM (active) | 1.58 µM (inactive) | 21.6 | 35.4 µM (inactive) | 17.1 µM (inactive) | 1.27 µM (inactive) | 3.25 µM (inactive) | 3.59 µM (inactive) | 12.4 µM (inactive) | < 0.01 µM (active) | 0.883 µM (active) | 0.0284 µM (active) | 1.04 µM (active) | 0.302 µM (active) | 0.355 µM (active) | 0.64 µM (active) |
| O=c1nc2n(c3nsnc13)CCO2 | > 100 µM (inactive) | > 100 µM (inactive) | > 100 µM (inactive) | > 100000 nM (inactive) | > 100 µM (inactive) | > 100 µM (inactive) | > 100 | > 100 µM (inactive) | > 100 µM (inactive) | > 100 µM (inactive) | > 100 µM (inactive) | > 100 µM (inactive) | > 100 µM (inactive) | > 100 µM (inactive) | > 100 µM (inactive) | > 100 µM (inactive) | > 100 µM (inactive) | > 100 µM (inactive) | > 100 µM (inactive) | > 100 µM (inactive) |
| O=C1/C(=C\c2ccccc2)c2ccccc2N1Cc1ccccc1 | 12.9 µM (inactive) | 12.8 µM (inactive) | > 10 µM (inactive) | 2040 nM (inactive) | 9.66 µM (inactive) | 10.7 µM (inactive) | 9.46 | 12.5 µM (inactive) | 12.2 µM (inactive) | 2.74 µM (inactive) | 6.92 µM (inactive) | 10.8 µM (inactive) | 2.88 µM (inactive) | 11.8 µM (inactive) | 7.01 µM (inactive) | 9.25 µM (inactive) | 9.16 µM (inactive) | 10.4 µM (inactive) | 10 µM (inactive) | 3.85 µM (inactive) |
| Cn1c2c3ccc(Cl)cc3nc-2c(Cl)c2ccccc21 | 16.6 µM (inactive) | 12.7 µM (inactive) | 19.9 µM (inactive) | 6150 nM (inactive) | 17.1 µM (inactive) | 16.6 µM (inactive) | 14.7 | 22.9 µM (inactive) | 21.4 µM (inactive) | 4.31 µM (inactive) | 18.2 µM (inactive) | 23 µM (inactive) | 6.01 µM (inactive) | 5.38 µM (inactive) | 15.5 µM (inactive) | 14.2 µM (inactive) | 20.9 µM (inactive) | 16.6 µM (inactive) | 16.3 µM (inactive) | 15.7 µM (inactive) |
| CCOCC(=O)N[C@H]1CCc2cc(OC(=O)COCC)c(OC)c(OC)c2-c2ccc(SC)c(=O)cc21 | 0.459 µM (active) | 0.0327 µM (active) | 0.0172 µM (active) | 15.9 nM (active) | 0.0461 µM (active) | 0.0324 µM (active) | 0.0551 | 0.0571 µM (active) | 0.019 µM (active) | 0.0299 µM (active) | 0.0138 µM (active) | 0.0301 µM (active) | 0.0126 µM (active) | 0.0264 µM (active) | 0.036 µM (active) | 0.0384 µM (active) | 0.0256 µM (active) | 0.021 µM (active) | 0.914 µM (active) | 0.0248 µM (active) |
| Cc1cc(N(CCC#N)CCC#N)ccc1/C=C1\SC(=S)NC1=O | > 100 µM (inactive) | 30.3 µM (inactive) | 69.5 µM (inactive) | 22000 nM (inactive) | 11.6 µM (inactive) | 65.3 µM (inactive) | > 100 | 51.3 µM (inactive) | > 100 µM (inactive) | 17.2 µM (inactive) | 52.1 µM (inactive) | > 100 µM (inactive) | 40 µM (inactive) | > 100 µM (inactive) | 74.6 µM (inactive) | 23.6 µM (inactive) | 40.3 µM (inactive) | 19.8 µM (inactive) | 99.8 µM (inactive) | 36.4 µM (inactive) |
| CC(=O)NC1C(OCc2ccccc2)OC(CO)C(O)C1OC(C)C(=O)N[C@@H](C)C(=O)N[C@H](CCC(=O)OCCNc1c2ccccc2nc2cccc([N+](=O)[O-])c12)C(N)=O (stereo not given in full) | 0.00344 µM (active) | 0.000129 µM (active) | 0.00313 µM (active) | 0.0364 nM (active) | 0.0114 µM (active) | 0.0215 µM (active) | 0.000166 | 0.00165 µM (active) | 0.00211 µM (active) | 0.000782 µM (active) | 0.00158 µM (active) | 0.00548 µM (active) | 0.00094 µM (active) | 0.000681 µM (active) | 0.000328 µM (active) | 0.00394 µM (active) | 0.00109 µM (active) | 0.0012 µM (active) | 0.00292 µM (active) | 0.00178 µM (active) |

Reference: ChEMBL document CHEMBL1201862, “PubChem BioAssay data set” (2004)
